From US20050221328A1, “Inhibitors of inflammatory gene activity and cholesterol biosynthesis” (Wyeth, priority 2002, published 2005)

Assays:
HepG2 cells = experiment: Gene expression in HepG2 cells treated 24 hr with CDCA or GW 4064; format: cell-based, human
Description: HepG2 cells were maintained in growth media at 37° C. in a 5% CO2 incubator. The cells were seeded in deficient growth media (phenol red free DMEM (Gibco BRL) supplemented with heat-inactivated 10% FBS, 1% Glutamax, 1% MEM non-essential amino acids, 100 U/ml penicillin and 100 μg/ml streptomycin) at 4-5×10^5 cells per well in a 6 well dish (Falcon). The cells were then placed into serum deficient media for 24 hr before addition of the compounds for an additional 24 hrs. The cells were then harvested for RNA analysis.
To further investigate the possibility that bile acid signaling through FXR can promote inflammatory gene expression, experiments were conducted in the hepatocyte cell line, HepG2. […] HepG2 cells express a number of inflammatory genes including ICAM-1 and M-CSF constitutively (Stonans et al '99 Cytokine 11:151). […] As positive controls, the induction of SHP mRNA and the repression of cyp7a were confirmed.
Referring to FIG. 24a-b, HepG2 cells were treated for 24 hr with increasing concentrations of chenodeoxycholic acid (CDCA). […] Data are reported as mean±SEM for each group. C57BL/6 mice. […] Data are reported as mean±SEM for each group.

ICAM-1 = experiment: Hepatic mRNA levels after single oral dose of GW 4064 in C57BL/6 mice; format: in vivo, mouse; settings: single oral dose 50 mg/kg, hepatic mRNA (FIG. 25)
human ICAM-1 promoter = experiment: ICAM-1 promoter luciferase reporter in HepG2 cells transfected with human FXR and RXRα; format: cell-based; settings: HepG2 transfections, GW 4064 1 uM, 24 or 48 hr; required proximal NF-κB response element
From the text: Referring to FIG. 26, HepG2 cells were transfected with the human FXR and RXRα expression plasmid and luciferase reporter plasmids containing the proximal promoter region of the human SHP (−360 to +40) or sequential deletions of the human ICAM-1 promoter (−1108 or −810 to +18). […] Data represent the mean+S.D. of three independent transfections.

[1] = HepG2, 24 hr, CDCA 1-100 uM or GW 4064 1-1000 nM

`CC(C)c1onc(-c2c(Cl)cccc2Cl)c1COc1ccc(/C=C/c2cccc(C(=O)O)c2)c(Cl)c1` [GW 4064] was tested, and the “EC50 observed for ICAM-induction vs cited FXR EC50” value (HepG2 cells; HepG2) was “comparable”, the ICAM-1 expression (HepG2 cells; [1]) was “induced in a dose dependent manner” and the M-CSF expression (HepG2 cells; [1]) was “induced in a dose dependent manner”. For the same molecule, the “SHP mRNA” value (HepG2 cells; HepG2, 24 hr, positive control) was “induction”, the cyp7a expression (HepG2 cells; HepG2, 24 hr, positive control) was “repression” and the “ICAM-1 expression in vivo” value (ICAM-1) was “induces”. The ICAM-1 promoter activity (human ICAM-1 promoter) was “stimulated”.
